{
  "source": "patent US20250277247A1",
  "about": "“NUCLEIC ACID AMPLIFICATIONS” (priority 2012, published 2025)",
  "key": {"[1]": {"settings": "cited from earlier work"}, "[2]": {"system": "purified influenza A viral RNA", "assay_type": "biochemical", "settings": "14 mM EGTA, 15 mM MgSO4, 100 mM Tris-Cl; about 20 minutes at room temperature, then 56° C., monitored 10 minutes; 0 or 100 copies"}, "[3]": {"system": "genomic DNA from Mycobacterium bovis BCG", "assay_type": "biochemical, Mycobacterium bovis BCG (ATCC strain 190115)", "settings": "15 mM EGTA, 15 mM MgSO4; 15 minutes at room temperature, then 56° C., monitored 40 minutes; 20 or 200 copies vs no template"}, "[4]": {"settings": "NEAR reaction mixture, buffer pH 8 at room temperature, temperature increased to 56° C.; cited from earlier work"}},
  "data": [
    {"smiles": "O=S(=O)(O)CCN1CCN(CCS(=O)(=O)O)CC1", "note": "[PIPES, piperazine-N,N′-bis(2-ethanesulfonic acid)]", "values": [
      {"measurement": "pKa (20° C.)", "setting": "[1]; 20° C.", "value": 6.80},
      {"measurement": "pKa (25° C.)", "setting": "[1]; 25° C.", "value": 6.76},
      {"measurement": "pKa (37° C.)", "setting": "[1]; 37° C.", "value": 6.66}
    ]},
    {"smiles": "O=C(O)CN(CCOCCOCCN(CC(=O)O)CC(=O)O)CC(=O)O", "note": "[EGTA, Ethylene bis(oxyethylenenitrilo) tetraacetic acid]", "values": [
      {"measurement": "Amplification (real-time fluorescence)", "setting": "[2]", "value": "Amplification was observed only in the reactions that included both EGTA and 100 copies of viral RNA"},
      {"measurement": "Amplification (real-time fluorescence)", "setting": "[3]", "value": "significant amplification was observed"}
    ]},
    {"smiles": "NC(CO)(CO)CO", "note": "[Tris, tris(hydroxymethyl)aminomethane]", "values": [
      {"measurement": "pH of the temperature sensitive buffer", "setting": "[4]", "value": "< 7.4"}
    ]}
  ]
}
